Measurements as given in article PMC9964023 (Marine Drugs, 2023).
pIC50: −log10 of the molar value. Bridge positions count the residues as written; N and C are the ends. Peptide text beside a SMILES is read from it.

Legend:
Test in all cases: biochemical
[1] = target: T1, serotonin transporter (SERT) (Rattus norvegicus, UniProt P31652)
T1 construct: brains were processed to yield synaptosomes as previously described; from tissue; host or cells: rat whole brain minus caudate and cerebellum, synaptosomes

[2] = target: T2, norepinephrine transporter (NET) (Rattus norvegicus, UniProt Q63380); type: biochemical
T2 construct: brains were processed to yield synaptosomes as previously described; from tissue; host or cells: rat whole brain minus caudate and cerebellum, synaptosomes

[3] = target: T3, dopamine transporter (DAT) (Rattus norvegicus, UniProt P23977)
T3 construct: brains were processed to yield synaptosomes as previously described; from tissue; host or cells: rat caudate synaptosomes
T3 sequence (P23977 whole entry): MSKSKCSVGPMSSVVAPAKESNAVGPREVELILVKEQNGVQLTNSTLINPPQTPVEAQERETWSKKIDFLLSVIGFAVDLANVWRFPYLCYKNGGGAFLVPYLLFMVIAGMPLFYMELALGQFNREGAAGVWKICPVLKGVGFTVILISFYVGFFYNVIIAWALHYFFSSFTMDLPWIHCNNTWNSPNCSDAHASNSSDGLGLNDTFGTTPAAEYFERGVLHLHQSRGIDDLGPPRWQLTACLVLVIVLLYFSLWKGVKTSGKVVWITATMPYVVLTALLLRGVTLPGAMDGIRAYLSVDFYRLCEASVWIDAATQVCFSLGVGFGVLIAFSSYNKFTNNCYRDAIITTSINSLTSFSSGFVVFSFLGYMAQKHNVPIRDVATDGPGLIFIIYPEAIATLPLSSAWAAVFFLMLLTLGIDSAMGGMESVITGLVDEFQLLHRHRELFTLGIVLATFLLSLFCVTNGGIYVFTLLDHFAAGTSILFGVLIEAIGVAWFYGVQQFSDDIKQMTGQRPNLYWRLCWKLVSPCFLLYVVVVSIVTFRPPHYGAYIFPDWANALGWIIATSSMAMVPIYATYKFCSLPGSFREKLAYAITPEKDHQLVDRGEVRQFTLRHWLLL

T2 sequence (Q63380 1-617): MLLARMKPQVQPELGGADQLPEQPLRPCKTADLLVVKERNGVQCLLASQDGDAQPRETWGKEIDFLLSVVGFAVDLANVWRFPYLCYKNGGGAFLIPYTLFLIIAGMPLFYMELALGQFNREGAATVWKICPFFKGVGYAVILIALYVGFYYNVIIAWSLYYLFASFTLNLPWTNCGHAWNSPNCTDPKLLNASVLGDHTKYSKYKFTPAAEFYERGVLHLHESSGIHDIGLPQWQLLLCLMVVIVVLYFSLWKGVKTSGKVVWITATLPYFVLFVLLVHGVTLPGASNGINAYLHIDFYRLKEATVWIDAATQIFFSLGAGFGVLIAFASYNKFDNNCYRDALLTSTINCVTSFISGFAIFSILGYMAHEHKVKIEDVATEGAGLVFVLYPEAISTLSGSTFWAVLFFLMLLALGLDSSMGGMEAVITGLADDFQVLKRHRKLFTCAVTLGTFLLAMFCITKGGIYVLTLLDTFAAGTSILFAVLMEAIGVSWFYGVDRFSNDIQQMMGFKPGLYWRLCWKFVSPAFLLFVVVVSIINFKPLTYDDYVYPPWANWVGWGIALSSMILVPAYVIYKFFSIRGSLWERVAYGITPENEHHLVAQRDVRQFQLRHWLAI
T1 sequence (P31652 whole entry): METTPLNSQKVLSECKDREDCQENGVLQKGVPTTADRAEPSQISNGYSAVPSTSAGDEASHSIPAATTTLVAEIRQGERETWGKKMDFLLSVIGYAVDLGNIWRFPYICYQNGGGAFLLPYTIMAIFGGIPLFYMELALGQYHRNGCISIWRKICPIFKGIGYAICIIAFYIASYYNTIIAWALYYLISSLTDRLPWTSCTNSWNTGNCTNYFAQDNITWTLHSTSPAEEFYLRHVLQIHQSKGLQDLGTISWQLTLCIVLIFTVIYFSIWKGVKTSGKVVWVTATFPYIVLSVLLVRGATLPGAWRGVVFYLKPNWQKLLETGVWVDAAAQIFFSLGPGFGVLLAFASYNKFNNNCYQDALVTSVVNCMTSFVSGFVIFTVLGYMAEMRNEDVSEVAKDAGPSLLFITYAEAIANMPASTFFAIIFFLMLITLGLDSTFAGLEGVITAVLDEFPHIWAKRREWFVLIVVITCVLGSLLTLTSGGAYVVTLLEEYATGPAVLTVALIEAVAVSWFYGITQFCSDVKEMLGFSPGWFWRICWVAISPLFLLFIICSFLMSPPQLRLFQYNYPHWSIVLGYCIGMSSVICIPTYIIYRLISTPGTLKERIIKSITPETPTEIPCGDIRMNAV

CSCC[C@H](NC(=O)[C@H](CCCNC(=N)N)NC(=O)[C@H](Cc1ccc(O)cc1)NC(=O)CNC(=O)[C@@H]1CSSC[C@H](NC(=O)[C@@H](NC(=O)[C@@H](N)CO)[C@@H](C)O)C(=O)N1)C(=O)N[C@H]1CSSC[C@@H](C(N)=O)NC(=O)[C@@H]2CCCN2C(=O)[C@H](C(C)C)NC1=O [PnID C] (H-STCCGYRMCVPC-NH2; disulfide 3-4, 9-12; N-terminus assumed)
pIC50 [1]: < 4.00
pIC50 [2]: < 4.00
activity at NET relative to ribbon isomer (in words) [2]: much less active in inhibiting the rat NET
biological activity (in words) [2]: did not display any measurable biological activity
pIC50 [3]: < 4.00
